In patent US20260109707A1, “HETEROBIFUNCTIONAL COMPOUNDS AND METHODS OF TREATING DISEASE” (Halda Therapeutics OpCo. Inc., priority 2022, published 2026):
Like-named read-outs stand apart in the source and are kept apart here.

Columns and labels:
[1] = tested on: T-Rex 293 cell line SC3 cells having increased expression of androgen receptor protein due to exposure to doxycycline; assay: Cellular growth inhibition assay, T-Rex 293 SC3 cells with doxycycline (CellTiter-Glo, 72 hours); format: cell-based; settings: T-Rex 293 SC3 cells with increased androgen receptor expression due to doxycycline (10 ng/mL)
How it was run: (§1)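 Doxycycline (10 ng/mL) was either included or omitted to toggle wild-type androgen receptor expression in SC3 cells, a T-Rex 293 clone, grown in stripped-serum, phenol red-free medium. After 72 hours with compound, viable cells were quantified by CellTiter-Glo 2.0.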

T47D cells = assay: Cellular growth inhibition assay for T47D cells (CellTiter-Glo, 72 hours); format: cell-based, human; settings: 72 hours treatment
How it was run: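 Growth inhibition as GI50, fitted with four parameters to CellTiter-Glo luminescence after 72 h of compound exposure (0.5% DMSO). Cells were T47D, grown in insulin-supplemented (0.2 units/mL) DMEM with 10% FBS and treated one day post-seeding.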

[2] = tested on: T-Rex 293 cell line SC3 cells lacking increased expression of androgen receptor protein; assay: Cellular growth inhibition assay, T-Rex 293 SC3 cells without doxycycline (CellTiter-Glo, 72 hours); format: cell-based; settings: T-Rex 293 cell line SC3 cells not exposed to doxycycline (lacking increased androgen receptor expression)
How it was run: as §1

VCaP cells = assay: Cellular growth inhibition assay for VCaP cells (CellTiter-Glo, 72 hours); format: cell-based, human
How it was run: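 Luminescent viability signal after 72 h of compound exposure gave GI50 values by four-parameter nonlinear regression. Compounds were added in 0.5% DMSO to cells plated 24 h earlier at 5000/well in DMEM containing 10% FBS.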

Row | Structure (SMILES) | GI50 (T47D cells; Homo sapiens, T47D, 72 h) [nM] | GI50 (VCaP cells; Homo sapiens, VCaP, 72 h) [nM] | GI50 (T47D cells) [nM] | GI50 (VCaP cells) [nM] | GI50 ([1]; 72 h) [nM] | GI50 ([2]; 72 h) [nM] | GI50 [1] [nM] | GI50 [2] [nM]
1 | Cc1sc2c(c1C)C(c1ccc([C@H]3C[C@@H](C[C@@H]4CCCN(c5ccc(C(=O)N[C@H]6CC[C@H](Oc7ccc(C#N)c(Cl)c7)CC6)nn5)C4)C3)cc1)=N[C@@H](Cc1ncco1)c1nnc(C)n1-2 [I-355] | 1500 to 3000 | 1500 to 3000 |  |  | > 3000 | > 3000 |  | 
2 | Cc1sc2c(c1C)C(c1ccc(CC(=O)N3CCC(c4ccc(C(=O)N[C@H]5CC[C@H](Oc6ccc(C#N)c(Cl)c6)CC5)nn4)CC3)cc1)=N[C@H](Cc1ncco1)c1nnc(C)n1-2 [I-331] | 1500 to 3000 | < 500 |  |  | > 3000 | > 3000 |  | 
3 | Cc1sc2c(c1C)C(c1ccc(CCC3CCC4CN(c5ccc(C(=O)N[C@H]6CC[C@H](Oc7ccc(C#N)c(Cl)c7)CC6)nn5)CCN4C3)cc1)=NC(Cc1ncco1)c1nnc(C)n1-2 (some centres unmarked) [I-402] |  |  | > 3000 | > 3000 |  |  | < 500 | > 3000
4 | Cc1sc2c(c1C)C(c1ccc(OC3CN(CC4CCN(c5ccc(C(=O)N[C@H]6CC[C@H](Oc7ccc(C#N)c(Cl)c7)CC6)nn5)CC4)C3)cc1)=N[C@@H](Cc1ncco1)c1nnc(C)n1-2 [I-87] |  |  | < 500 | < 500 |  |  | < 500 | < 500
5 | Cc1sc2c(c1C)C(c1ccc(CN(C)C(=O)CN(C)c3ccc(C(=O)N[C@H]4CC[C@H](Oc5ccc(C#N)c(Cl)c5)CC4)nn3)cc1)=N[C@@H](Cc1ncco1)c1nnc(C)n1-2 [I-299] | 1500 to 3000 | < 500 |  |  | 1500 to 3000 | > 3000 |  | 
6 | Cc1sc2c(c1C)C(c1ccc(C(=O)N3CCC(N(C)c4ccc(C(=O)N[C@H]5CC[C@H](Oc6ccc(C#N)c(Cl)c6)CC5)nn4)CC3)cc1)=N[C@H](Cc1ncco1)c1nnc(C)n1-2 [I-307] | 1500 to 3000 | 1500 to 3000 |  |  | < 500 | 500 to 1500 |  | 

More lines, main results first:

Row | GI50 (T47D cells; Homo sapiens, T47D, 72 h) [nM] | GI50 (VCaP cells; Homo sapiens, VCaP, 72 h) [nM] | GI50 (T47D cells) [nM] | GI50 (VCaP cells) [nM] | Structure (SMILES) | GI50 ([1]; 72 h) [nM] | GI50 ([2]; 72 h) [nM] | GI50 [1] [nM] | GI50 [2] [nM]
7 | < 500 | < 500 |  |  | Cc1sc2c(c1C)C(c1ccc(C#CC3CC4(C3)CN(c3ccc(C(=O)N[C@H]5CC[C@H](Oc6ccc(C#N)c(Cl)c6)CC5)nn3)C4)cc1)=NC1(CC1)c1nnc(C)n1-2 [I-418] | < 500 | < 500 |  | 
8 | 500 to 1500 | < 500 |  |  | CCNC(=O)C[C@@H]1N=C(c2ccc(CCC3CN(c4ccc(C(=O)N[C@H]5CC[C@H](Oc6ccc(C#N)c(Cl)c6)CC5)nn4)C3)cc2)c2c(sc(C)c2C)-n2c(C)nnc21 [I-31] | < 500 | 500 to 1500 |  | 
9 | < 500 | < 500 |  |  | Cc1sc2c(c1C)C(c1ccc(C3CN(C4CCN(c5ccc(C(=O)N[C@H]6CC[C@H](Oc7ccc(C#N)c(Cl)c7)CC6)nn5)CC4)C3)cc1)=N[C@@H](Cc1ncco1)c1nnc(C)n1-2 [I-212] | < 500 | < 500 |  | 
10 | 500 to 1500 | < 500 |  |  | Cc1sc2c(c1C)C(c1ccc(CNC(=O)CNC(=O)c3ccc(C(=O)N[C@H]4CC[C@H](Oc5ccc(C#N)c(Cl)c5)CC4)nn3)cc1)=N[C@@H](Cc1ncco1)c1nnc(C)n1-2 [I-233] | < 500 | > 3000 |  | 
11 | < 500 | < 500 |  |  | Cc1sc2c(c1C)C(c1ccc(C#C[C@H]3C[C@]4(CCCN(c5ccc(C(=O)N[C@H]6CC[C@H](Oc7ccc(C#N)c(Cl)c7)CC6)nn5)C4)C3)cc1)=N[C@@H](Cc1ncco1)c1nnc(C)n1-2 [I-234] | < 500 | < 500 |  | 
12 | < 500 | < 500 |  |  | Cc1sc2c(c1C)C(c1ccc(C[C@H]3C[C@]4(CN(c5ccc(C(=O)N[C@H]6CC[C@H](Oc7ccc(C#N)c(Cl)c7)CC6)nn5)CCO4)C3)cc1)=N[C@@H](Cc1ncco1)c1nnc(C)n1-2 [I-211] | < 500 | < 500 |  | 
13 | < 500 | < 500 |  |  | Cc1sc2c(c1C)C(c1ccc(C3CN(C4CCN(c5ccc(C(=O)N[C@H]6CC[C@H](Oc7ccc(C#N)c(Cl)c7)CC6)nn5)C4)C3)cc1)=N[C@@H](Cc1ncco1)c1nnc(C)n1-2 (some centres unmarked) [I-209] | < 500 | < 500 |  | 
14 | 500 to 1500 | > 3000 |  |  | Cc1sc2c(c1C)C(c1ccc(C[C@H]3C[C@@]4(CN(c5ccc(C(=O)N[C@H]6CC[C@H](Oc7ccc(C#N)c(Cl)c7)CC6)nn5)CCO4)C3)cc1)=N[C@@H](Cc1ncco1)c1nnc(C)n1-2 [I-210] | > 3000 | > 3000 |  | 
